How the values were obtained:
[1] = Pharmacokinetics in Sprague Dawley rats; format: in vivo
[2] = target: T1, JAK3 (Homo sapiens, UniProt P52333); assay: Enzymatic Caliper Mobility Shift Assay, ATP at Km; format: biochemical
T1 construct: ChemPartner (contract assay service)
T1 sequence (P52333 1-1124): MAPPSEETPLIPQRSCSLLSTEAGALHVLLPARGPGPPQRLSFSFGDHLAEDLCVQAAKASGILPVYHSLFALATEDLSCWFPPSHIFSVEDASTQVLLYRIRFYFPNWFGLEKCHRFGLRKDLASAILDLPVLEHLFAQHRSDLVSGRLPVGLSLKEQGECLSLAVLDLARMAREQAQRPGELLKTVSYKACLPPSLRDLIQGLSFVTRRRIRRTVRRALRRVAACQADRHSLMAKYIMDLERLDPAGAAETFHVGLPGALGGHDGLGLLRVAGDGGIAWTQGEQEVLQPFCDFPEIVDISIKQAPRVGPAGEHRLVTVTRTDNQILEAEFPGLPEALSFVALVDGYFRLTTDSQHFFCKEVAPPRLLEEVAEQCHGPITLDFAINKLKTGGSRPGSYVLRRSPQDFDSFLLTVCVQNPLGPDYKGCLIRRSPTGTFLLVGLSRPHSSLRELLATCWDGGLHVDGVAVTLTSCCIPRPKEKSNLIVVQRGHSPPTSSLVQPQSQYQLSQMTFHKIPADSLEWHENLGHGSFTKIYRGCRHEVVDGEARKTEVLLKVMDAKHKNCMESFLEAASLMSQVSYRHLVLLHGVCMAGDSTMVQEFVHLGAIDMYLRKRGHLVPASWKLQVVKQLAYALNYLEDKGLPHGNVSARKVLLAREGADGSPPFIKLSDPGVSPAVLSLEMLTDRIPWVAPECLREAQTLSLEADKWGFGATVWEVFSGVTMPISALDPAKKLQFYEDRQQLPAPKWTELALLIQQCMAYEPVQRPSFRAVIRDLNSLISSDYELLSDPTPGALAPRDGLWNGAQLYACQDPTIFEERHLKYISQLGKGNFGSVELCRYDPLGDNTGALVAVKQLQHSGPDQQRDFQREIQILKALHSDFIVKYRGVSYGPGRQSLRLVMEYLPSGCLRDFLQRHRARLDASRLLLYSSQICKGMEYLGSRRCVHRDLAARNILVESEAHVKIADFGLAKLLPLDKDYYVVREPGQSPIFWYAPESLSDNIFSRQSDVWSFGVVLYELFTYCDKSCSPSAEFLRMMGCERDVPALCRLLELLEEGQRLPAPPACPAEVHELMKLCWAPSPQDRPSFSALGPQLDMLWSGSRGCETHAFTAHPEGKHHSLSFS
Description: (§1) The assay protocol guides are commercially available from ChemPartner.

[3] = target: T2, JAK1 (Homo sapiens, UniProt P23458); assay: Enzymatic Caliper Mobility Shift Assay, ATP at Km; format: biochemical
T2 construct: ChemPartner (contract assay service)
T2 sequence (P23458 whole entry): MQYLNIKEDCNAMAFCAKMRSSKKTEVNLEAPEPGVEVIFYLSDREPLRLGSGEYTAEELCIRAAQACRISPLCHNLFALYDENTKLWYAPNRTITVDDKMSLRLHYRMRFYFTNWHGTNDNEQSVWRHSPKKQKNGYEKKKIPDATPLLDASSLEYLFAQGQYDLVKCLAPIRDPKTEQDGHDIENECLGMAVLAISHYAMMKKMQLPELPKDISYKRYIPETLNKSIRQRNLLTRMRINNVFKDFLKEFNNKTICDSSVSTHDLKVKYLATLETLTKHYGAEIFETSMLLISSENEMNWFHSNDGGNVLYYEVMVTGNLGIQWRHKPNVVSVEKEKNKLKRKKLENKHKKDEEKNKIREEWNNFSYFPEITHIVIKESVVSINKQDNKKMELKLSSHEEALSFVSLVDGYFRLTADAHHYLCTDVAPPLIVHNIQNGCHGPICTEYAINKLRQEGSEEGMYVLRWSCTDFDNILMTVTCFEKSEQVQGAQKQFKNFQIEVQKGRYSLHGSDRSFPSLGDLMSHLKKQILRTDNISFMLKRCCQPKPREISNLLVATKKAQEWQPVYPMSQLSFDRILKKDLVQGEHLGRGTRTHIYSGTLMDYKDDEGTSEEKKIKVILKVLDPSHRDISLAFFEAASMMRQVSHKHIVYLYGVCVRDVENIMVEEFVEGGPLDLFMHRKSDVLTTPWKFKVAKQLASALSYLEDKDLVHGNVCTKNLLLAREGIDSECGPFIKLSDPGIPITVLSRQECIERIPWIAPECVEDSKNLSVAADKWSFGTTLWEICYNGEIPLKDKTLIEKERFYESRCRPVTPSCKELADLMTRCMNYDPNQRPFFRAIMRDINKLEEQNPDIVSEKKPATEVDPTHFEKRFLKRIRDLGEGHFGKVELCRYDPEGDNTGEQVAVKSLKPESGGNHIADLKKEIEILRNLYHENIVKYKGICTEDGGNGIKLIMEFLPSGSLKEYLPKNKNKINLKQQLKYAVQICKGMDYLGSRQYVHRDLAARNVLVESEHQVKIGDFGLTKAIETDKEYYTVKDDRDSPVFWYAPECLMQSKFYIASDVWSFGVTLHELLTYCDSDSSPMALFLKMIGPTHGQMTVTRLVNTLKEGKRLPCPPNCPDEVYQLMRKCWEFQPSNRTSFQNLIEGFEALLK
Description: as §1

[4] = target: T3, JAK2 (Homo sapiens, UniProt O60674); assay: Enzymatic Caliper Mobility Shift Assay, ATP at Km; format: biochemical
T3 construct: ChemPartner (contract assay service)
T3 sequence (O60674 whole entry): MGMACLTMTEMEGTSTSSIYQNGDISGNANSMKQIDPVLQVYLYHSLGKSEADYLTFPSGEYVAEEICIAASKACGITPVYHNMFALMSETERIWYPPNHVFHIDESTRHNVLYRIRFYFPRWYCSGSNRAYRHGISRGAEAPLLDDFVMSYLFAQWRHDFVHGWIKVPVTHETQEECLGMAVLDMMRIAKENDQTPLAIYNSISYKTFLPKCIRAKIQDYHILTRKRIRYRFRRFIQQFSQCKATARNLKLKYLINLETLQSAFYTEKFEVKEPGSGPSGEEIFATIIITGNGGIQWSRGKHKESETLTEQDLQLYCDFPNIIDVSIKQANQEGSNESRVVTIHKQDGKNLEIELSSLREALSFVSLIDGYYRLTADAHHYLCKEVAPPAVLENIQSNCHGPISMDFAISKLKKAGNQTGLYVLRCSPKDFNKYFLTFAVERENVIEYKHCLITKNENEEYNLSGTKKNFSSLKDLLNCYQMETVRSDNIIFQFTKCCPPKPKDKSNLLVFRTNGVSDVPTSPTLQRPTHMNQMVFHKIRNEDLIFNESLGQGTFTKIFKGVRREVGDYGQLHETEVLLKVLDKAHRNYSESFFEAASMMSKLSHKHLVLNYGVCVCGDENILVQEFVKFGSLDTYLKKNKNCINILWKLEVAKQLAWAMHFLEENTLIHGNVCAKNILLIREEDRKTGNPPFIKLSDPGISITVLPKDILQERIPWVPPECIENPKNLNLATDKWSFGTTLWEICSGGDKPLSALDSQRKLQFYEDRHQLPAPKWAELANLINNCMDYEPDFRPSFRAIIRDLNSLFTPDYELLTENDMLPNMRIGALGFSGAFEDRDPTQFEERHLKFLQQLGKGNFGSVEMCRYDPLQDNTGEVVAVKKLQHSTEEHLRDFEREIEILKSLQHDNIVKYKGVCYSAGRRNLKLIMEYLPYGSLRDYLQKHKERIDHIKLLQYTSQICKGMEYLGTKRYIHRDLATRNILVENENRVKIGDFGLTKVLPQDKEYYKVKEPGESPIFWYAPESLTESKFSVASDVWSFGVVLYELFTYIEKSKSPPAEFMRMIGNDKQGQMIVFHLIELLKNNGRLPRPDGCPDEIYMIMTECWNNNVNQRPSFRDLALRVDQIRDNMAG
Description: as §1

[5] = target: TYK2 (Homo sapiens, UniProt P29597); assay: Enzymatic Caliper Mobility Shift Assay, ATP at Km; format: biochemical
TYK2, sequence (P29597 whole entry): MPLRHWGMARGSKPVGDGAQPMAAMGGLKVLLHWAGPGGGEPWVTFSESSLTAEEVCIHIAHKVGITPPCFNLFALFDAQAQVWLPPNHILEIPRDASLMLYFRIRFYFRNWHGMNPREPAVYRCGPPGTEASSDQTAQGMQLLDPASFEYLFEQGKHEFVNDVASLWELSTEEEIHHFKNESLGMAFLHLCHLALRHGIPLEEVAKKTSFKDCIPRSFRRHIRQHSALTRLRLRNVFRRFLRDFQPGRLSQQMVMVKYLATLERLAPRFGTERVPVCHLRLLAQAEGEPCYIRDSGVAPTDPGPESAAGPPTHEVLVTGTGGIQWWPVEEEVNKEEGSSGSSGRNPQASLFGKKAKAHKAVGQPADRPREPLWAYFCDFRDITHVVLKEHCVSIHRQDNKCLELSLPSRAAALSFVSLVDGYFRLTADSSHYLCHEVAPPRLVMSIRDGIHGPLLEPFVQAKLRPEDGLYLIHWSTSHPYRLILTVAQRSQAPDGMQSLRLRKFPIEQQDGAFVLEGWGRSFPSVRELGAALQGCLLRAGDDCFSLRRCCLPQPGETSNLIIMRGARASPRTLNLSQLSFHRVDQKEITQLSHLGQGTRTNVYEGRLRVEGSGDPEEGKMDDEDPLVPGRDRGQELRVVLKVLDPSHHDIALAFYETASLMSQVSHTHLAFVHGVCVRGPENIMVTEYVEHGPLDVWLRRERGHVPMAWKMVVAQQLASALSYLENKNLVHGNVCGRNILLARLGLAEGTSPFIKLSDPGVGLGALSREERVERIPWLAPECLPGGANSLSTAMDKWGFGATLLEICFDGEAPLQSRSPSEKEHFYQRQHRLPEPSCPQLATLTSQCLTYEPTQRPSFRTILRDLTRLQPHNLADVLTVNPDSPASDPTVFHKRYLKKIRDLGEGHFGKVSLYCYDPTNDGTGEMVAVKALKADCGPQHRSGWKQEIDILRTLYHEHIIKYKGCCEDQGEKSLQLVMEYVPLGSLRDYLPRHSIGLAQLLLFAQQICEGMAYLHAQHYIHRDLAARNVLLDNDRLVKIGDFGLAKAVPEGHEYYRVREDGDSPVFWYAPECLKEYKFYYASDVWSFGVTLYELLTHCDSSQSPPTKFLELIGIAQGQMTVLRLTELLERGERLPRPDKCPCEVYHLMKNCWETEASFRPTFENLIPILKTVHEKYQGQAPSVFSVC
Description: as §1

[6] = target: T4, Fyn (Homo sapiens, UniProt P06241); assay: Eurofins Kinase Profiler panel; format: biochemical; conditions: read-out: % inhibition (1μM), DMSO control=100%, lower=stronger
T4 construct: purchased Eurofins Pharma Discovery Services UK Limited (Kinase Profiler screening platform)
T4 sequence (P06241 whole entry): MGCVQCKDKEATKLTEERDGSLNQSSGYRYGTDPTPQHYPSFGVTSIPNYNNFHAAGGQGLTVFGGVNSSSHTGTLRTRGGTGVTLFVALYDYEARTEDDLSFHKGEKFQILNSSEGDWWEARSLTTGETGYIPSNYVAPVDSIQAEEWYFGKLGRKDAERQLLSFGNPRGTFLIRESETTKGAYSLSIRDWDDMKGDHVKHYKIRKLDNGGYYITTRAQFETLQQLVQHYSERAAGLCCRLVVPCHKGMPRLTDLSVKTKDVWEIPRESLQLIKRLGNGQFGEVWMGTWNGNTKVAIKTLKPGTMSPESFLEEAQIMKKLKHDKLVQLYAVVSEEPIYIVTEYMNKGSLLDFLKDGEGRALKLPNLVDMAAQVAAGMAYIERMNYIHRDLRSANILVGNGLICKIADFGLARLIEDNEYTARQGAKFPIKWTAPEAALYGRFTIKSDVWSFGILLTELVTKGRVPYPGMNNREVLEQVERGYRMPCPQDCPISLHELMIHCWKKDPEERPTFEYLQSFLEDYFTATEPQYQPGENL

[7] = target: T5, IKKβ (Homo sapiens, UniProt O14920); assay: Eurofins Kinase Profiler panel; format: biochemical; conditions: read-out: % inhibition (1μM), DMSO control=100%, lower=stronger
T5 construct: purchased Eurofins KinaseProfiler (Eurofins Pharma Discovery Services UK, Dundee); JAK3 also ChemPartner
T5 sequence (O14920 whole entry): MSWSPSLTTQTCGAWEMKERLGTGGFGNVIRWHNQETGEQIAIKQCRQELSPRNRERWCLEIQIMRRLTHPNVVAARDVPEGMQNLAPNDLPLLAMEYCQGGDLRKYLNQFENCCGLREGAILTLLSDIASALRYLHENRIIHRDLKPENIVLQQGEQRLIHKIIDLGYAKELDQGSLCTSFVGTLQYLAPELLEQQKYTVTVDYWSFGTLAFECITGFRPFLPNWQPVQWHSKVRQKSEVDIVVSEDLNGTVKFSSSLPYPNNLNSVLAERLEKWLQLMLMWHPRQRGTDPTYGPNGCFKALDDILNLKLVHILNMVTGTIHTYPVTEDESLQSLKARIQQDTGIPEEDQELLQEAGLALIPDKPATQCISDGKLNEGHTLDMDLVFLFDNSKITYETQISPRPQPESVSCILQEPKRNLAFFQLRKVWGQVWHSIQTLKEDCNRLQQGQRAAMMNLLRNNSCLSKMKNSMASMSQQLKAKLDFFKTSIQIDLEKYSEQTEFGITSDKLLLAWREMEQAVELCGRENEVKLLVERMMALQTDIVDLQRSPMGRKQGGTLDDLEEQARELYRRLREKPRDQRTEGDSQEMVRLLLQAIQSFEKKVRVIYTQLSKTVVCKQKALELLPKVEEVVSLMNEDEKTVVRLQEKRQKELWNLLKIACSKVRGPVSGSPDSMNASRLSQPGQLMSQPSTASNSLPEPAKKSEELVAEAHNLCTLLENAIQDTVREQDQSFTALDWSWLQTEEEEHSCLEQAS

[8] = test system: IL-6-induced STAT3 phosphorylation (JAK1); assay: IL-6-induced pSTAT3 in total lymphocytes in hPBMCs, flow cytometry; format: cell-based, human
[9] = test system: IL-6-induced JAK/STAT3 phosphorylation in TF-1 cells (JAK1); assay: STAT3 phosphorylation induced by IL-6 in TF-1 cells, Western blot
[10] = target: T6, TXK (Homo sapiens, UniProt P42681); assay: Cys-containing kinase family panel (EurofinsCerep); format: biochemical
T6 construct: EurofinsCerep (contract assay service)
Description: as §1

[11] = target: T7, EGFR (Homo sapiens, UniProt P00533); assay: Cys-containing kinase family panel (EurofinsCerep); format: biochemical
T7 construct: EurofinsCerep (contract assay service)
Description: as §1

[12] = target: T8, TEC (Homo sapiens, UniProt P42680); assay: Cys-containing kinase family panel (EurofinsCerep); format: biochemical
T8 construct: EurofinsCerep (contract assay service)
Description: as §1

[13] = test system: IL-3-induced JAK/STAT5 phosphorylation in TF-1 cells (JAK2); assay: STAT5 phosphorylation induced by IL-3 in TF-1 cells, Western blot
[14] = target: T9, MEK1 (Homo sapiens, UniProt Q02750); assay: Eurofins Kinase Profiler panel; format: biochemical; conditions: read-out: % inhibition (1μM), DMSO control=100%, lower=stronger
T9 construct: purchased Eurofins KinaseProfiler (Eurofins Pharma Discovery Services UK, Dundee); JAK3 also ChemPartner

[15] = both sexes, Sprague Dawley, rat, iv 5.0 mg/kg, plasma
[16] = both sexes, Sprague Dawley, rat, plasma, iv 5.0 mg/kg
[17] = both sexes, Sprague Dawley, rat, plasma, po 10 mg/kg
[18] = both sexes, Sprague Dawley, rat, po 10 mg/kg, plasma

C=CC(=O)N[C@@H]1CCCN(c2ncnc3[nH]ccc23)C1 [RB1]
AUC(0-inf) [1, 15]: 933 ng·h/mL
AUC(0-t) [1, 15]: 802 ng·h/mL
Cmax [1, 15]: 1090 ng/mL
Tmax [1, 16]: 0.08 h
clearance [1, 16]: 97.7 mL/min/kg
half-life [1, 16]: 14.6 h
bioavailability ([1]; both sexes, Sprague Dawley, rat, plasma, oral, 10 mg/kg, po 10 mg/kg vs iv 5.0 mg/kg, read-out: F (oral bioavailability)): 72.5%
Tmax [1, 17]: 0.25 h
half-life [1, 17]: 6.9 h
AUC(0-inf) [1, 18]: 1310 ng·h/mL
AUC(0-t) [1, 18]: 1160 ng·h/mL
Cmax [1, 18]: 309 ng/mL
V ([1]; iv 5.0 mg/kg): 98.04 L/kg
CL ([1]; po 10 mg/kg): 144 mL/min/kg
V ([1]; po 10 mg/kg): 77.33 L/kg
F (oral bioavailability) ([1]; po 10 mg/kg vs iv 5.0 mg/kg): 72.5%
IC50 [2]: 0.04 µM
preference for JAK3 above JAK2, JAK1 and TYK2 ([2]; kinase assay): over 100 fold
IC50 [3]: > 5 µM
inhibition of JAK1 ([3]; at concentrations up to 5 µM): did not inhibit
IC50 [4]: > 5 µM
inhibition of JAK2 ([4]; at concentrations up to 5 µM): did not inhibit
IC50 ([5]; TYK2, ATP 16.0 μM (Km)): > 5 µM
inhibition of TYK2 ([5]; at concentrations up to 5 µM): did not inhibit
activity at 1 µM [6]: 97%
activity at 1 µM [7]: 105%
IC50 ([8]; Homo sapiens, Lymphocyte, hPBMC total lymphocytes, trigger IL-6, readout pSTAT3, JAK1): > 40 µM
Selectivity JAK1/JAK3 ([8]; hPBMC, IL-6 pSTAT3 over IL-2 pSTAT5): >400 fold
IC50 ([9]; Homo sapiens, TF-1, read-out: IC50, STAT and JAK phosphorylation): > 50 µM
Selectivity JAK1/JAK3 ([9]; TF-1, IL-6, pSTAT3): > 1000
inhibition at 1 µM [10]: 7.25%
inhibition at 1 µM [11]: 11.2%
inhibition at 1 µM [12]: 14%
IC50 ([13]; Homo sapiens): > 50 µM
Selectivity JAK2/JAK3 ([13]; IL-3, pSTAT5): > 1000
activity at 1 µM [14]: 92%
